Measurements taken from patent US20200361914A1, “SUBSTITUTED BENZENE AND 6,5-FUSED BICYCLIC HETEROARYL COMPOUNDS” (Epizyme, Inc., priority 2014, published 2020).
Read-outs that look alike come from different tables or passages of the source.

Tests used:
[1] = tested on: H3K27 trimethylation in WSU-DLCL2 cells; assay: WSU-DLCL2 methylation assay (H3K27me3 ELISA); assay type: cell-based, Human; settings: H3K27me3 normalised to total H3, read-out: EZH2 WSU ELISA IC50
Description: WSU-DLCL2 Methylation Assay
WSU-DLCL2 suspension cells are purchased from DSMZ (German Collection of Microorganisms and Cell Cultures, Braunschweig, Germany). RPMI/Glutamax Medium, Penicillin-Streptomycin, Heat Inactivated Fetal Bovine Serum, and D-PBS were purchased from Life Technologies, Grand Island, N.Y., USA. Extraction Buffer and Neutralization Buffer (5×) were purchased from Active Motif, Carlsbad, Calif., USA. Rabbit anti-Histone H3 antibody is purchased from Abcam, Cambridge, Mass., USA. Rabbit anti-H3K27me3 and HRP-conjugated anti-rabbit-IgG are purchased from Cell Signaling Technology, Danvers, Mass., USA. TMB “Super Sensitive” substrate is sourced from BioFX Laboratories, Owings Mills, Md., USA. IgG-free Bovine Serum Albumin is purchased from Jackson ImmunoResearch, West Grove, Pa., USA. PBS with Tween (10×PBST) was purchased from KPL, Gaithersburg, Md., USA. Sulfuric Acid is purchased from Ricca Chemical, Arlington, Tex., USA. Immulon ELISA plates were purchased from Thermo, Rochester, N.Y., USA. V-bottom cell culture plates are purchased from Corning Inc., Corning, N.Y., USA.V-bottom polypropylene plates were purchased from Greiner Bio-One, Monroe, N.C., USA.
WSU-DLCL2 suspension cells are maintained in growth medium (RPMI 1640 supplemented with 10% v/v heat inactivated fetal bovine serum and 100 units/mL penicillin-streptomycin) and cultured at 37° C. under 5% CO2. Under assay conditions, cells are incubated in Assay Medium (RPMI 1640 supplemented with 20% v/v heat inactivated fetal bovine serum and 100 units/mL penicillin-streptomycin) at 37° C. under 5% CO2 on a plate shaker.
WSU-DLCL2 cells are seeded in assay medium at a concentration of 50,000 cells per mL to a 96-well V-bottom cell culture plate with 200 μL per well. Compound (1 μL) from 96 well source plates is added directly to V-bottom cell plate. Plates are incubated on a titer-plate shaker at 37° C., 5% CO2 for 96 hours. After four days of incubation, plates are spun at 241×g for five minutes and medium was aspirated gently from each well of cell plate without disturbing cell pellet. Pellet is resuspended in 200 μL DPBS and plates are spun again at 241×g for five minutes. The supernatant is aspirated and cold (4° C.) Extraction buffer (100 μL) is added per well. Plates are incubated at 4° C. on orbital shaker for two hours. Plates are spun at 3427×g x 10 minutes. Supernatant (80 μL per well) is transferred to its respective well in 96 well V-bottom polypropylene plate. Neutralization Buffer 5×(20 μL per well) is added to V-bottom polypropylene plate containing supernatant. V-bottom polypropylene plates containing crude histone preparation (CHP) are incubated on orbital shaker x five minutes. Crude Histone Preparations are added (2 μL per well) to each respective well into duplicate 96 well ELISA plates containing 100 μL Coating Buffer (1×PBS+BSA 0.05% w/v). Plates are sealed and incubated overnight at 4° C. The following day, plates were washed three times with 300 μL per well 1×PBST. Wells are blocked for two hours with 300 μL per well ELISA Diluent ((PBS (1×) BSA (2% w/v) and Tween20 (0.05% v/v)). Plates are washed three times with 1×PBST. For the Histone H3 detection plate, 100 μL per well are added of anti-Histone-H3 antibody (Abcam, ab1791) diluted 1:10,000 in ELISA Diluent. For H3K27 trimethylation detection plate, 100 μL per well are added of anti-H3K27me3 diluted 1:2000 in ELISA diluent. Plates are incubated for 90 minutes at room temperature. Plates are washed three times with 300 μL 1×PBST per well. For Histone H3 detection, 100 μL of HRP-conjugated anti-rabbit IgG antibody diluted to 1:6000 in ELISA diluent is added per well. For H3K27me3 detection, 100 μL of HRP conjugated anti-rabbit IgG antibody diluted to 1:4000 in ELISA diluent is added per well. Plates are incubated at room temperature for 90 minutes. Plates are washed four times with 1×PBST 300 μL per well. TMB substrate 100 μL is added per well. […]

[2] = biological target: wild-type PRC2 enzyme (EZH2 WT) (Homo sapiens, UniProt Q15910); assay: PRC2 enzyme assay on peptide substrate, wild-type EZH2
Sequence of wild-type PRC2 enzyme (EZH2 WT) (Q15910 whole entry): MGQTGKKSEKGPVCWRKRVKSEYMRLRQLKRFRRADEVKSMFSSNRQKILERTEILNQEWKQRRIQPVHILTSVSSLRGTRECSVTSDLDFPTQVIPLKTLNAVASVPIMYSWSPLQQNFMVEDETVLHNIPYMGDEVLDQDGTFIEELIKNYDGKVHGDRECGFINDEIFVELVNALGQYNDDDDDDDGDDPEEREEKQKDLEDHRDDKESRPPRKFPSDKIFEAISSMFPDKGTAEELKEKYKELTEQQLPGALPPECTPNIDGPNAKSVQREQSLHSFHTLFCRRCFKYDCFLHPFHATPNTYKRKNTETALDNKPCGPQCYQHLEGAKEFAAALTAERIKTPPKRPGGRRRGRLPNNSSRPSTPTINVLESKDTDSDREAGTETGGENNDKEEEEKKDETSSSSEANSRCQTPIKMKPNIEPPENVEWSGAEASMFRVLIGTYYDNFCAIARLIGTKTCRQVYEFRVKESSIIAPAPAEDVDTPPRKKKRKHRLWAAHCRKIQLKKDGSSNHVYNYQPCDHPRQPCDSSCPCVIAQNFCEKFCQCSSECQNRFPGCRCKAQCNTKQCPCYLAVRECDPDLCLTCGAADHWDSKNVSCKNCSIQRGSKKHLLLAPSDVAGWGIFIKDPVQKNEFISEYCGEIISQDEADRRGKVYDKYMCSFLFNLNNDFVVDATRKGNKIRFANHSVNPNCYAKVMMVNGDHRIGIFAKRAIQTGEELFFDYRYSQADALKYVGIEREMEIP
Sequence of wild-type PRC2 enzyme (EZH2 WT) (O75530 whole entry partner): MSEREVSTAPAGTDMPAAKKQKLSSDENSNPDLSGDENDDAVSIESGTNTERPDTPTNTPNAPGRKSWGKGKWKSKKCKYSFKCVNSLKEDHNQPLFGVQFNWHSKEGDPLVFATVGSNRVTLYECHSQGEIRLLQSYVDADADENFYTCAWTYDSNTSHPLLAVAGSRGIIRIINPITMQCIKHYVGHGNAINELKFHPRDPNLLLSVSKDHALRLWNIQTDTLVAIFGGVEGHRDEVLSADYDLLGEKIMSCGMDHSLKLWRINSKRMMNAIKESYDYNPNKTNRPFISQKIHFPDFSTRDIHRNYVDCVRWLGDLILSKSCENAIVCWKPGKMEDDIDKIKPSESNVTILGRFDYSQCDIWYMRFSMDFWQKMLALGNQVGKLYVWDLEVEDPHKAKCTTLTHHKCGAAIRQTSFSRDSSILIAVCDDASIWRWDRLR
Sequence of wild-type PRC2 enzyme (EZH2 WT) (Q15022 whole entry partner): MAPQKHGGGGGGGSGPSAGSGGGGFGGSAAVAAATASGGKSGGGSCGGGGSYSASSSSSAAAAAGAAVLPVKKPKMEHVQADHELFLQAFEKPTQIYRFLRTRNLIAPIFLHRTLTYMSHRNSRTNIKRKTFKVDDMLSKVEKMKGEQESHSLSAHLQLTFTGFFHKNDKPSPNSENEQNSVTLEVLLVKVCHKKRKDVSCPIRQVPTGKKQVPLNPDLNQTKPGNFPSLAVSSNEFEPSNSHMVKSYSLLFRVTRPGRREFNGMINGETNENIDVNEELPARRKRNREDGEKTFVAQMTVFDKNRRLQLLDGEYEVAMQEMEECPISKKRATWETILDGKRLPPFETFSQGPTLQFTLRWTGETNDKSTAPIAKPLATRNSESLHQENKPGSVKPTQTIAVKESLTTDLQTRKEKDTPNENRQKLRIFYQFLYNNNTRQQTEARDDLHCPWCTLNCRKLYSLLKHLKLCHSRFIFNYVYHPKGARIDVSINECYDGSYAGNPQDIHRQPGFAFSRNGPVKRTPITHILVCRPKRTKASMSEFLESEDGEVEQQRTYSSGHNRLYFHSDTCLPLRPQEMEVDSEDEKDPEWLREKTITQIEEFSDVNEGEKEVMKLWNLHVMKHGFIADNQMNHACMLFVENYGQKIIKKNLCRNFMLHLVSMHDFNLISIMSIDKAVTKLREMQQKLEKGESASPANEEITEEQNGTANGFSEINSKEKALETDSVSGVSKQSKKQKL
Sequence of wild-type PRC2 enzyme (EZH2 WT) (Q09028 whole entry partner): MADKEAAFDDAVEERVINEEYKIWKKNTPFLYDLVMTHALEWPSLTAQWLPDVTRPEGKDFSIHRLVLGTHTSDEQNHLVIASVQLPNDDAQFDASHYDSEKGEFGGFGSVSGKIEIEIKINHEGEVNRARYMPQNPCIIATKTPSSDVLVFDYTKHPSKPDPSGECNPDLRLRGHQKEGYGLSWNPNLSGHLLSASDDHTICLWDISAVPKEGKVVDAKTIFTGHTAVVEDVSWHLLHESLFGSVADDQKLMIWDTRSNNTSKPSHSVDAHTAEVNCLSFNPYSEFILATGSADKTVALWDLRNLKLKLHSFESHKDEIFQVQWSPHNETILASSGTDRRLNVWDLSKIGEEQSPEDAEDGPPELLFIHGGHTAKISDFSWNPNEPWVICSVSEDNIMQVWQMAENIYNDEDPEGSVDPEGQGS
Description: (§1) S-adenosylmethionine (SAM), S-adenosylhomocyteine (SAH), bicine, KCl, Tween20, dimethylsulfoxide (DMSO) and bovine skin gelatin (BSG) can be purchased from Sigma-Aldrich at the highest level of purity possible. Dithiothreitol (DTT) was purchased from EMD. ^3H-SAM can be purchased from American Radiolabeled Chemicals with a specific activity of 80 C1/mmol. 384-well streptavidin Flashplates can be purchased from PerkinElmer.
(§2) Recombinant PRC2 Enzymes. Human PRC2 enzymes are purified as 4-component enzyme complexes co-expressed in Spodoptera frugiperda (sf9) cells using a baculovirus expression system. […] The EED subunit contains an N-terminal FLAG tag that is used to purify the entire 4-component complex from sf9 cell lysates. The purity of the complexes meets or exceeds 95% as determined by SDS-PAGE and Agilent Bioanalyzer analysis.
(§3) General Procedure for PRC2 Enzyme Assays on Peptide Substrates. The assays are all performed in a buffer consisting of 20 mM bicine (pH=7.6), 0.5 mM DTT, 0.005% BSG and 0.002% Tween20, prepared on the day of use. […] DMSO (1 μL) is added to columns 11, 12, 23, 24, rows A-H for the maximum signal control, and SAH, a known product and inhibitor of PRC2 (1 μL) is added to columns 11, 12, 23, 24, rows I-P for the minimum signal control. A cocktail (40 μL) containing the wild-type PRC2 enzyme and H3K27me0 peptide or any of the Y641 mutant enzymes and H3K27me2 peptide is added by Multidrop Combi (Thermo). The compounds are allowed to incubate with PRC2 for 30 min at 25° C., then a cocktail (10 μL) containing a mixture of non-radioactive and ^3H-SAM is added to initiate the reaction (final volume=51 μL). […] The assays are stopped by the addition of non-radioactive SAM (10 μL) to a final concentration of 600 μM, which dilutes the ^3H-SAM to a level where its incorporation into the peptide substrate is no longer detectable. 50 μL of the reaction in the 384-well polypropylene plate is then transferred to a 384-well Flashplate and the biotinylated peptides are allowed to bind to the streptavidin surface for at least 1h before being washed three times with 0.1% Tween20 in a Biotek ELx405 plate washer. The plates are then read in a PerkinElmer TopCount platereader to measure the quantity of ^3H-labeled peptide bound to the Flashplate surface, measured as disintegrations per minute (dpm) or alternatively, referred to as counts per minute (cpm).
(§4) Where dpm=disintegrations per minute, cmpd=signal in assay well, and min and max are the respective minimum and maximum signal controls.
(§5) Where top and bottom are the normally allowed to float, but may be fixed at 100 or 0 respectively in a 3-parameter fit. The Hill Coefficient normally allowed to float but may also be fixed at 1 in a 3-parameter fit. Y is the % inhibition and X is the compound concentration.

[3] = biological target: Y641 mutant PRC2 enzyme (EZH2 Y641) (Homo sapiens, UniProt Q15910, Y641F); assay: PRC2 enzyme assay on peptide substrate, Y641 mutant EZH2
Sequence of Y641 mutant PRC2 enzyme (EZH2 Y641) (Q15910 whole entry Y641F): as the sequence (Q15910 whole entry) above, with Y641F counted along it
Sequence of Y641 mutant PRC2 enzyme (EZH2 Y641) (O75530 whole entry partner): as the sequence (O75530 whole entry partner) above
Sequence of Y641 mutant PRC2 enzyme (EZH2 Y641) (Q15022 whole entry partner): as the sequence (Q15022 whole entry partner) above
Sequence of Y641 mutant PRC2 enzyme (EZH2 Y641) (Q09028 whole entry partner): as the sequence (Q09028 whole entry partner) above
Description: as §1, §2, §3, §4, §5

[4] = Homo sapiens, WSUDLCL2, 96 h, 96 hours incubation
[5] = Homo sapiens, WSUDLCL2, 96 hours incubation

| SMILES | IC50 [1, 4] [µM] | IC50 ([1]; 96 hours incubation) [µM] | IC50 [1, 5] [µM] | IC50 [2] [µM] | IC50 [3] [µM] |
| --- | --- | --- | --- | --- | --- |
| Cc1cc(C)c(CNC(=O)c2c(C)n(C(C)C3CCOCC3)c3ccccc23)c(=O)[nH]1 (racemic) [compound 19, N-((4,6-dimethyl-2-oxo-1,2-dihydropyridin-3-yl)methyl)-2-methyl-1-(1-(tetrahydro-2H-pyran-4-yl)ethyl)-1H-indole-3-carboxamide] | 1 to 10 | – | – | – | – |
| COc1cc(C)[nH]c(=O)c1CNC(=O)c1c(C)n(C(C)C2CCOCC2)c2ccccc12 (racemic) [compound 24, N-((4-methoxy-6-methyl-2-oxo-1,2-dihydropyridin-3-yl)methyl)-2-methyl-1-(1-(tetrahydro-2H-pyran-4-yl)ethyl)-1H-indole-3-carboxamide] | 1 to 10 | – | – | – | – |
| COc1cc(C)[nH]c(=O)c1CNC(=O)c1c(C)n(C(C)C2CCOCC2)c2ccccc12 (single isomer, unassigned) [24a, N-((4-methoxy-6-methyl-2-oxo-1,2-dihydropyridin-3-yl)methyl)-2-methyl-1-(1-(tetrahydro-2H-pyran-4-yl)ethyl)-1H-indole-3-carboxamide] | – | 10 to 50 | – | – | – |
| COc1cc(C)[nH]c(=O)c1CNC(=O)c1c(C)n(C(C)C2CCOCC2)c2ccccc12 (single isomer, unassigned) [24b, N-((4-methoxy-6-methyl-2-oxo-1,2-dihydropyridin-3-yl)methyl)-2-methyl-1-(1-(tetrahydro-2H-pyran-4-yl)ethyl)-1H-indole-3-carboxamide] | – | 1 to 10 | – | – | – |
| Cc1cc(C)c(CNC(=O)c2ccc(C(C)Oc3ccccc3)cc2C)c(=O)[nH]1 (centres unmarked) [compound 5, N-((4,6-dimethyl-2-oxo-1,2-dihydropyridin-3-yl)methyl)-2-methyl-4-(1-phenoxyethyl)benzamide] | – | – | 10 to 50 | 0.1 to 1 | 0.1 to 1 |
| Cc1cc(=O)c(CNC(=O)c2ccc(C(C)Oc3ccccc3)cc2C)c(C)[nH]1 (centres unmarked) [compound 6, N-((2,6-dimethyl-4-oxo-1,4-dihydropyridin-3-yl)methyl)-2-methyl-4-(1-phenoxyethyl)benzamide] | – | – | > 25 | > 50 | 10 to 50 |
| Cc1cc(C)c(CNC(=O)c2cc(Cl)c(C(C)Oc3ccccc3)cc2C)c(=O)[nH]1 (centres unmarked) [compound 12, 5-chloro-N-((4,6-dimethyl-2-oxo-1,2-dihydropyridin-3-yl)methyl)-2-methyl-4-(1-phenoxyethyl)benzamide] | – | – | > 25 | 0.1 to 1 | < 0.1 |
| Cc1cc(=O)c(CNC(=O)c2cc(Cl)c(Oc3cccc(-c4ccnnc4)c3C#N)cc2C)c(C)[nH]1 [compound 16, 5-chloro-4-(2-cyano-3-(pyridazin-4-yl)phenoxy)-N-((2,6-dimethyl-4-oxo-1,4-dihydropyridin-3-yl)methyl)-2-methylbenzamide] | – | – | > 25 | – | – |
| CCC(C)n1cc(C)c2c(C(=O)NCc3c(C)[nH]c(C)cc3=O)cc(-c3ccc(N4CCNCC4)nc3)cc21 (centres unmarked) [compound 25, 1-(sec-butyl)-N-((2,6-dimethyl-4-oxo-1,4-dihydropyridin-3-yl)methyl)-3-methyl-6-(6-(piperazin-1-yl)pyridin-3-yl)-1H-indole-4-carboxamide] | – | – | 10 to 50 | < 0.1 | < 0.1 |
| CCN(c1cc(-c2ccc(OCCOC)cc2)cc(C(=O)NC2CC(C)(C)NC(C)(C)C2)c1C)[C@H]1CC[C@H](N(C)C)CC1 [compound 33, 5-(((trans)-4-(dimethylamino)cyclohexyl)(ethyl)amino)-4′-(2-methoxyethoxy)-4-methyl-N-(2,2,6,6-tetramethylpiperidin-4-yl)-[1,1′-biphenyl]-3-carboxamide] | – | – | > 25 | 10 to 50 | 10 to 50 |
